Reference: ChEMBL document CHEMBL3046916, “ROLE OF INTERMEDIARY BIOMARKERS IN DETERMINING THE ANTICANCER EFFICACY OF MARINE COMPOUNDS” (2004)
Activity calls are given as the source filed them. The calls are words filed in the database; no cut-off is given here.

Assays:
Assay type in all cases: functional
MCF7 [1] = test: Inhibition of residual DNA repair ability in Homo sapiens (human) MCF7 cells assessed as plaque forming unit at 50 uM followed by irradiated with 50 Jm'-2 of UV after 24 hr by host cell reactivation assay relative to control
MCF7 [2] = test: Inhibition of residual DNA repair ability in Homo sapiens (human) MCF7 cells assessed as plaque forming unit at 50 uM followed by irradiated with 200 Jm'-2 of UV after 24 hr by host cell reactivation assay relative to control
MCF7 [3] = test: Inhibition of residual DNA repair ability in Homo sapiens (human) MCF7 cells assessed as plaque forming unit at 50 uM followed by irradiated with 100 Jm'-2 of UV after 24 hr by host cell reactivation assay relative to control
MCF7 [4] = test: Decrease of p16 protein expression in Homo sapiens (human) MCF7 cells at 50 uM followed by irradiated with UV after 4 hr by Western blot analysis relative to control; design: scale not given: the % may be the effect or the level left
MCF7 [5] = test: Increase of benzo[alpha]pyrene-DNA adduct formation in Homo sapiens (human) MCF7 cells at 50 uM treated for 24 hr before benzo[alpha]pyrene addition measured after 24 hr by 32P-postlabeling technique relative to control
MCF7 [6] = test: Decrease of p21 protein expression in Homo sapiens (human) MCF7 cells at 50 uM followed by irradiated with UV after 4 hr by Western blot analysis relative to control; design: scale not given: the % may be the effect or the level left
MCF7 [7] = test: Decrease of p53 protein expression in Homo sapiens (human) MCF7 cells at 50 uM followed by irradiated with UV after 4 hr by Western blot analysis relative to control; design: scale not given: the % may be the effect or the level left
MCF7 [8] = test: Increase of benzo[alpha]pyrene-DNA adduct formation in Homo sapiens (human) MCF7 cells at 100 uM treated for 24 hr before benzo[alpha]pyrene addition measured after 24 hr by 32P-postlabeling technique relative to control

Row | SMILES | %PFU (MCF7 [1]) | %PFU (MCF7 [2]) | %PFU (MCF7 [3]) | Activity (MCF7 [4]) | fold change (FC) (MCF7 [5]) | Activity (MCF7 [6]) | Activity (MCF7 [7]) | fold change (FC) (MCF7 [8]) | Activity (MCF7 [5])
1 | O[C@]12C=C(c3nccc4c3[nH]c3ccccc34)[C@@H]3CCN(CCCC/C=C\CC1)C[C@@]31C[C@@H]3/C=C\CCCCN3[C@H]12 [MANZAMINE A] | 46% | 9% | 15% | 89% | 2 | 80% | 63% |  | 
2 | CC1=C2CC/C(C)=C/CC[C@]3(C)O[C@H]3CC/C(C)=C/[C@@H]2OC1=O [SARCOPHINE] | 69% | 24% | 38% | 96% |  | 120% | 90% | 2 | inactive
